From the supplement of paper PMC10307832

Legend:
Assay in all cases: relative viability (nuclei count vs DMSO), 5 days (fraction); higher = more cells survive
[1] = compound: CC1=C(CC(=O)O)c2cc(F)ccc2/C1=C\c1ccc([S+](C)[O-])cc1 [Sulindac] + CC(=O)Nc1cccc(-n2c(=O)n(C3CC3)c(=O)c3c(Nc4ccc(I)cc4F)n(C)c(=O)c(C)c32)c1 [Trametinib] (partner 0.02 µM)
Procedure, shortened: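 Lung cancer cell lines, seeded in 1536-well plates, were treated the following day by pin tool with a single drug or with five library-drug doses (not always all listed) in √10 steps on top of a fixed anchor-drug dose. Cells were fixed and nuclei stained in one step after 5 days, and nuclei were counted. Relative viability is the nuclei count for treated wells divided by that for vehicle wells, reported as medians of duplicate plates.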

[2] = compound: CC1=C(CC(=O)O)c2cc(F)ccc2/C1=C\c1ccc([S+](C)[O-])cc1 [Sulindac]
Procedure, shortened: (§1)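 Vehicle-anchored 1536-well plates of lung cancer cell lines, held overnight at 37 °C, were pinned with five library-drug doses (not always all listed) spaced by √10. No medium change followed over the next 5 days, after which the cells were fixed, permeabilised and Hoechst-stained together and imaged at 4×. Nuclei were counted with MetaXpress, and viability is treated-well nuclei over vehicle-well nuclei, taken as a median across plates. Plates passed with control CV below 25% and at least one doubling.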

[3] = compound: O=c1[nH]cc(F)c(=O)[nH]1 [5-Fluorouracil]
Procedure, shortened: as §1

[4] = compound: CN[C@@H]1C[C@H]2O[C@@](C)([C@@H]1OC)n1c3ccccc3c3c4c(c5c6ccccc6n2c5c31)C(=O)NC4 [Staurosporine]
Procedure, shortened: as §1

Row | Cell Line | relative viability ([1]; first compound 0.08 µM) | relative viability ([1]; first compound 0.253 µM) | relative viability ([1]; first compound 2.53 µM) | relative viability ([1]; first compound 8 µM) | relative viability ([2]; 0.08 µM) | relative viability ([2]; 0.253 µM) | relative viability ([2]; 0.8 µM) | relative viability ([2]; 2.53 µM) | relative viability ([2]; 8 µM) | relative viability ([3]; 0.02 µM) | relative viability ([3]; 0.2 µM) | relative viability ([3]; 0.6325 µM) | relative viability ([3]; 2 µM) | relative viability ([4]; 0.005 µM) | relative viability ([4]; 0.05 µM) | relative viability ([4]; 0.1581 µM) | relative viability ([4]; 0.5 µM) | relative viability ([1]; first compound 0.8 µM) | relative viability ([4]; 0.01581 µM)
1 | NCI-H1793 | 0.352 | 0.497 | 0.497 | 0.481 | 0.904 | 0.993 | 0.722 | 0.953 | 0.908 | 0.968 | 1.18 | 0.985 | 0.554 | 0.921 | 0.628 | 0.205 | 0.152 | – | –
2 | NCI-H1734 | 0.673 | 0.725 | 0.693 | 0.832 | 1.17 | 1 | 0.787 | 0.991 | 1.07 | 0.93 | 1.08 | 0.859 | 0.461 | 0.899 | 0.291 | 0.151 | 0.113 | 0.575 | 0.375
3 | LU99A | 0.587 | 0.585 | 0.503 | 0.687 | 1.02 | 0.982 | 0.922 | 0.845 | 1.09 | 0.943 | 0.999 | 0.845 | 0.624 | 0.912 | 0.422 | 0.211 | 0.131 | 0.482 | 0.569
4 | RERF-LC-KJ | 0.99 | 0.928 | 0.877 | 0.933 | 1.09 | 1.09 | 0.814 | 1.06 | 1.02 | 1.05 | 0.912 | 0.975 | 0.828 | 0.95 | 0.501 | 0.237 | 0.211 | 0.778 | 0.682
5 | NCI-H2087 | 0.217 | 0.205 | 0.207 | 0.224 | 1.05 | 1.13 | 0.954 | 1.05 | 1.28 | 0.992 | 1.02 | 0.688 | 0.571 | 0.927 | 0.243 | 0.0918 | 0.0911 | 0.158 | 0.561
6 | NCI-H2170 | 1.24 | 0.938 | 0.936 | 0.946 | 1.13 | 1.03 | 0.884 | 1.06 | 0.991 | 1.02 | 0.88 | 0.529 | 0.464 | 1.07 | 0.766 | 0.384 | 0.161 | 0.83 | –
7 | HCC-78 | 0.844 | 0.865 | 0.81 | 0.824 | 1.14 | 0.958 | 0.759 | 0.913 | 0.961 | 0.896 | 1.13 | 0.603 | 0.404 | 0.88 | 0.586 | 0.363 | 0.353 | 0.647 | 0.666
8 | NCI-H1395 | 0.966 | 0.999 | 0.949 | 1.17 | 1.11 | 0.968 | 0.938 | 0.804 | 1.14 | 0.899 | 1.03 | 0.937 | 0.826 | 0.609 | 0.488 | 0.331 | 0.253 | 0.939 | 0.364
9 | NCI-H2228 | 0.621 | 0.675 | 0.523 | 0.364 | 1.2 | 1.08 | 0.916 | 1.03 | 1.18 | 0.976 | 1.02 | 0.75 | 0.458 | 0.735 | 0.407 | 0.145 | 0.107 | 0.5 | 0.471
10 | H3255 | 0.635 | 0.661 | 0.699 | 0.656 | 0.943 | 0.968 | 0.884 | 1 | 1.1 | 0.901 | 1.09 | 0.89 | 0.712 | 0.596 | 0.363 | 0.267 | 0.145 | 0.509 | 0.432
11 | HCC-15 | 0.415 | 0.395 | 0.347 | 0.283 | 1.14 | 1.07 | 0.843 | 0.986 | 1.13 | 1.04 | 1.11 | 0.711 | 0.413 | 0.92 | 0.636 | 0.137 | 0.119 | 0.375 | –
12 | NCI-H838 | 0.608 | 0.559 | 0.527 | 0.584 | 1.05 | 1.04 | 0.879 | 0.94 | 1.07 | 0.879 | 1.03 | 0.597 | 0.387 | 0.447 | 0.221 | 0.189 | 0.126 | 0.456 | 0.315
13 | NCI-H2023 | 0.62 | 0.543 | 0.493 | 0.716 | 1.39 | 1.05 | 0.744 | 1.01 | 1.13 | 0.849 | 0.227 | 0.133 | 0.0914 | 0.471 | 0.178 | 0.0889 | 0.0533 | 0.427 | 0.289
14 | HCC-44 | 1.11 | 1.13 | 1.26 | 1.02 | 0.986 | 1.01 | 1.02 | 0.935 | 1.04 | 1.05 | 0.941 | 0.55 | 0.349 | 1.01 | 0.404 | 0.228 | 0.14 | 0.969 | 0.384
15 | NCI-H2342 | 0.829 | 0.81 | 0.826 | 0.825 | 0.912 | 0.946 | 0.843 | 0.99 | 0.99 | 0.955 | 1.02 | 0.894 | 0.783 | 1.09 | 0.525 | 0.461 | 0.36 | 0.721 | 0.652
16 | ChaGo-K-1 | 1.05 | 0.963 | 0.914 | 0.903 | 1.09 | 1.02 | 0.863 | 1.03 | 1.12 | 1.01 | 0.964 | 0.766 | 0.612 | 1.03 | 0.871 | 0.307 | 0.228 | 0.817 | –
17 | COR-L23 | 0.653 | 0.671 | 0.548 | 0.725 | 1.41 | 1.08 | 0.7 | 1.01 | 1.22 | 1 | 0.995 | 0.476 | 0.278 | 0.765 | 0.289 | 0.123 | 0.0808 | 0.357 | 0.443
